≈ marks a conversion by molar mass, not a printed value.
What was measured:
[1] = murine plasma; cited from earlier work
[2] = human plasma; cited from earlier work
[3] = Solubility of docetaxel in trehalose or water; type: physicochemical

| SMILES | in vitro half life [1] | half life [2] | solubility [3] |
| --- | --- | --- | --- |
| C/C1=C/C[C@@H](/C(C)=C/c2csc(C)n2)OC(=O)C[C@H](O)C(C)(C)C(=O)[C@H](C)[C@@H](O)[C@@H](C)CCC1 [desoxy-epothilone B] | ~20 min | around 3 h |  |
| CC(=O)O[C@@]12CO[C@@H]1C[C@H](O)[C@@]1(C)C(=O)[C@H](O)C3=C(C)[C@@H](OC(=O)[C@H](O)[C@@H](NC(=O)OC(C)(C)C)c4ccccc4)C[C@@](O)([C@@H](OC(=O)c4ccccc4)[C@H]21)C3(C)C [docetaxel] |  |  | ~20 µM (≈ 16.2 µg/mL) |

Reference: patent publication US9238021B2, “Method of producing a cationic liposomal preparation comprising a lipophilic compound” (MEDIGENE AG, priority 2002, dated 2016)
